The text below walks through data of patent publication US4454155A, “Pharmaceutical compositions containing a mono-substituted derivative of 4-phenyl-4-oxobuten-2-oic acid, and methods of using them in treating gastric and gastroduodenal ailments” (Roussel UCLAF, priority 1981, dated 1984).

Broadly, the LD50 is the dose expected to kill half of the subjects tested.

Molecules are shown by their SMILES.

The test system of series [1] is total acidity of the gastric juice. In words: Gastric anti-secretory activity (Shay, pylorus-ligated rats). The format is in vivo, rat. The note with it: 10 mg/kg, intraduodenally, male rats, 3 hours. The protocol:
(1) Determination of the gastric anti-secretory activity
The technique used is described by H. Shay et al in Gastroenterology 5, 43 (1945).
Male rats were used, each having a weight of about 200 g (ten animals per lot), which had been without food for 48 hours but were allowed 8% glucose solution ad libitum. After the rats were slightly anesthetized with ether, the pylorus of each was ligated. At the end of the operation, different doses of the product to be tested, or in the case of the control animals a 0.5% carboxymethyl cellulose solution, were administered intraduodenally, whereupon the abdominal incision was sutured.
Three hours later, the animals were sacrificed and their stomachs removed after ligating the esophagus. The gastric juice was removed and centrifuged. The volume of gastric juice obtained was then measured and the total acidity of the gastric juice obtained was established by titrating a 100 μL sample of gastric juice to a pH of 7 with 1/10 N Sodium hydroxide aqueous solution. The total acidity was determined.
The percentage of variation of total acidity between the results from test animals and results from control animals were calculated.

In series [2] the test system is ulcers in the stomachs of rats. In words: Anti-ulcer activity, stress ulcer (stress and cold). The format is in vivo, rat. The note with it: 10 mg/kg, by esophageal tube, female rats, stress at 8° C. for two hours. On the procedure: (2) Determination of the anti-ulcer activity
The technique consists in inducing ulcers in the stomachs of rats by stress (stress and cold). The technique used is described by E. C. Senay and R. J. Levine, Proc. Soc. Ex. Biol. 124, 1221 (1967).
Female rats of 150 g (5 animals per lot) were used which had fasted for 48 hours with water ad libitum and glucose solution for 8 hours. The animals were given the test product, or a 0.5% solution of carboxymethyl cellulose in the case of the control animals, by esophageal tube. Two hours later, the animals were wrapped in a jacket of netting. Their paws were bound and the entire unit was placed in a refrigerator at 8° C. for two hours. The rats were freed and killed with ether. Their stomachs were removed, opened along the greater curvature and examined with a binocular magnifier. The seriousness of the lesions was rated from 0 to 3 for each stomach.
The average intensity of the ulcerations was calculated for each lot of rats. The difference in the degree of ulceration between test animals and control animals was determined and calculated as a percentage.

Another series in a line: Acute toxicity. Conditions: mouse, in vivo, po; per os, mice. On the procedure: (3) Determination of the acute toxicity
The LD50 was evaluated after administration of the product per os in mice.

As for `COc1ccc(C(=O)C=CC(=O)O)cc1` [Example 2, 4-(4-methyoxyphenyl)-4-oxobuten-2-oic acid], the “Anti-secretory activity (% variation as compared with the controls), Acid Concentration” value in series [1] is reported as -66%. For the same molecule, the “Anti-ulcer activity (% variation as compared with the controls), Ulceration” value in series [2] is -73%. Also, the LD50 in “Acute toxicity” came out at 500 mg/kg.

With `O=C(O)C=CC(=O)c1ccccc1O` [Example 1, 4-(2-hydroxyphenyl)-4-oxobuten-2-oic acid], the “Anti-secretory activity (% variation as compared with the controls), Acid Concentration” value in series [1] was -65%. For the same molecule, the “Anti-ulcer activity (% variation as compared with the controls), Ulceration” value in series [2] was -35%. Besides, in “Acute toxicity”, the LD50 worked out at 350 mg/kg.
